Experimental data taken from article PMC6934184, “Selective DNA-PKcs inhibition extends the therapeutic index of localized radiotherapy and chemotherapy” (The Journal of Clinical Investigation, 2019).

Target: T1, CSNK2A2 (CK2 alpha 2) (Homo sapiens, UniProt P19784)
T1 construct: purchased Thermo Fisher Scientific (Life Technologies) SelectScreen
Assay: SelectScreen Z'LYTE
Assay type: biochemical
Procedure, shortened: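 Percent values come from Thermo SelectScreen profiling of NU5455, combining activity and binding assays. CSF1R was run in Z'LYTE format at Km app ATP, and CAMK1 in Adapta format with ATP listed at 10.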

T1 sequence (P19784 whole entry): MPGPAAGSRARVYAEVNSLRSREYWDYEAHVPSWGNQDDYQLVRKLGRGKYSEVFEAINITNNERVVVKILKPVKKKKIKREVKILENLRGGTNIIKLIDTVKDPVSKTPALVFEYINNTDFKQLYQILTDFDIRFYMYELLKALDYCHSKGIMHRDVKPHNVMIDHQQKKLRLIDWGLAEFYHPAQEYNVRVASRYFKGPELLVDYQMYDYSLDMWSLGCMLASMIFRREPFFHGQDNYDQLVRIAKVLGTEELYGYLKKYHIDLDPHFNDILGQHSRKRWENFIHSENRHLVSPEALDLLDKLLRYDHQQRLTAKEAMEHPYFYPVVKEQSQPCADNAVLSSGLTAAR

CN(C(=O)CN1CCOCC1)c1ccc2sc3c(-c4cccc5c(=O)cc(N6CC7CCC(C6)O7)oc45)cccc3c2c1 [NU5455]
inhibition at 1 µM: 8.7%
